From patent US9283213B2, “Dihydropyridin-2(1H)-one compounds as S-nitrosoglutathione reductase inhibitors and neurokinin-3 receptor antagonists” (N30 Pharmaceuticals, Inc., priority 2010, dated 2016)

Key:
GSNOR = biological target: T1, GSNOR (Homo sapiens, UniProt P11766); test: GSNOR assay (inhibition of GSNOR activity in vitro); format: biochemical; settings: 0.240 mM GSNO, 0.300 mM NADH, pH 7.4, 25° C.; read-out: GSNOR inhibitor IC50
T1 construct: made in house; host or cells: E. coli
Protocol: Various compounds were tested in vitro for their ability to inhibit GSNOR activity.
Pre-cultures were grown from stabs of a GSNOR glycerol stock in 2XYT media containing 100 ug/ml ampicillin after an overnight incubation at 37° C. Cells were then added to fresh 2XYT (4 L) containing ampicillin and grown to an OD (A600) of 0.6-0.9 at 37° C. before induction. GSNOR expression was induced with 0.1% arabinose in an overnight incubation at 20° C.
E. coli cell paste was lysed by nitrogen cavitation and the clarified lysate purified by Ni affinity chromatography on an AKTA FPLC (Amersham Pharmacia). The column was eluted in 20 mM Tris pH 8.0/250 mM NaCl with a 0-500 mM imidazole gradient. […] GSNOR was recovered in the flowthrough fraction and for crystallography is further purified by Q-Sepharose and Heparin flowthrough chromatography in 20 mM Tris pH 8.0, 1 mM DTT, 10 uM ZnSO4.
GSNO and Enzyme/NADH Solutions are made up fresh each day. The Solutions are filtered and allowed to warm to room temperature. GSNO Solution: 100 mM NaPO4 (pH 7.4), 0.480 mM GSNO. 396 μL of GSNO Solution is added to a cuvette followed by 8 μL of test compound in DMSO (or DMSO only for full reaction control) and mixed with the pipette tip. Compounds to be tested are made up at a stock concentration of 10 mM in 100% DMSO. 2 fold serial dilutions are done in 100% DMSO. 8 μL of each dilution are added to an assay so that the final concentration of DMSO in the assay is 1%. The concentrations of compounds tested range from 100 to 0.003 μM. Enzyme/NADH Solution: 100 mM NaPO4 (pH 7.4), 0.600 mM NADH, 1.0 μg/mL GSNO Reductase. 396 μL of the Enzyme/NADH Solution is added to the cuvette to start the reaction. The cuvette is placed in the Cary 3E UV/Visible Spectrophotometer and the change in 340 nm absorbance/min at 25° C. is recorded for 3 minutes. The assays are done in triplicate for each compound concentration. IC50's for each compound are calculated using the standard curve analysis in the Enzyme Kinetics Module of SigmaPlot.
Final assay conditions: 100 mM NaPO4, pH 7.4, 0.240 mM GSNO, 0.300 mM NADH, 0.5 μg/mL GSNO Reductase and 1% DMSO. Final volume: 800 μL/cuvette.

human NK3 receptor [1] = biological target: T2, human NK3 receptor (Homo sapiens, UniProt P29371); test: Human NK3 receptor binding assay at 1 uM; settings: 1 μM test compound; 0.4 nM [3H]SR142801; CHO cell membranes; read-out: percent inhibition at 1 μM, human NK3 receptor binding
T2 construct: expressed in transfected cells; host or cells: CHO cells
T2 sequence (P29371 1-465): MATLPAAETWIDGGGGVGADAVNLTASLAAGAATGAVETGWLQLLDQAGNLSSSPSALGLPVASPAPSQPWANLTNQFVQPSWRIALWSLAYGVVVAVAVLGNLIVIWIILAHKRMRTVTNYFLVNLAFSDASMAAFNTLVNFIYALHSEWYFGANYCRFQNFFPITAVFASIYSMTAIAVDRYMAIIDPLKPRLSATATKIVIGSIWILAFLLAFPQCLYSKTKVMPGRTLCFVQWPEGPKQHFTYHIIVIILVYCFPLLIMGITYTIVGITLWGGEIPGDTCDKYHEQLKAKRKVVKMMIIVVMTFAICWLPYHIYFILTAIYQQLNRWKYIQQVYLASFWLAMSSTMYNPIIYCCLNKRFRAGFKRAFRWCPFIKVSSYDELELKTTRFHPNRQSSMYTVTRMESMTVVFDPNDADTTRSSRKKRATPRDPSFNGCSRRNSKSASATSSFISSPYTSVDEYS
Protocol: (§1) Evaluation of the affinity of compounds for the human NK3 receptor from transfected CHO cells was performed using an antagonist radioligand binding assay. Antagonist activity was evaluated at a concentration of 1 μM for a representative subset of test compounds, and the results were expressed as the percent inhibition at that concentration.
Receptor binding assays were performed using crude membranes prepared from CHO cells expressing human NK3 receptor. Osanetant (SR142801), a non-peptide NK3 antagonist, was used as a ligand, and SB222200 was used as a positive control reference compound. […] The filters were rinsed several times with ice-cold 50 mM Tris/HCl using a 96-sample cell harvester (Unifilter, Packard), dried, and counted for radioactivity in a scintillation counter (Topcount, Packard) using a scintillation cocktail (Microscint 0, Packard). Each test compound was evaluated at a single concentration of 1 μM. […] Nonspecific binding was determined in the presence of 10 μM SB222200. […] The results are expressed as a percent of control specific binding ((measured specific binding/control specific binding)×100) obtained in the presence of the test compounds.

human NK3 receptor [2] = biological target: T2, human NK3 receptor; test: Human NK3 receptor binding assay determined by IC50; settings: 0.4 nM [3H]SR142801; CHO cell membranes
Protocol: Evaluation of the affinity of compounds for the human NK3 receptor from transfected CHO cells was performed using an antagonist radioligand binding assay. The antagonist activity of a representative subset of test compounds was evaluated over a range of concentrations, and the results were expressed as IC50 values.
Receptor binding assays were performed using crude membranes prepared from CHO cells expressing human NK3 receptor. Osanetant (SR142801), a non-peptide NK3 antagonist, was used as a ligand, and SB222200 was used as a positive control reference compound. […] The filters were rinsed several times with ice-cold 50 mM Tris/HCl using a 96-sample cell harvester (Unifilter, Packard), dried, and counted for radioactivity in a scintillation counter (Topcount, Packard) using a scintillation cocktail (Microscint 0, Packard). […] Nonspecific binding was determined in the presence of 10 μM SB222200. […] The IC50 values (concentration causing a half-maximal inhibition of control specific binding) and Hill coefficients (nH) were determined by non-linear regression analysis of the competition curves generated with mean replicate values using Hill equation curve fitting (Y=D+[(A−D)/(1+(C/C50)^nH)], where Y=specific binding, D=minimum specific binding, A=maximum specific binding, C=compound concentration, C50=IC50, and nH=slope factor). […]

human NK3 receptor [3] = biological target: T2, human NK3 receptor; test: Human NK3 receptor binding assay at 10 μM; settings: 10 μM test compound; 0.4 nM [3H]SR142801; CHO cell membranes; read-out: percent inhibition at 10 μM, human NK3 receptor binding
Protocol: as §1, with “affinity of test compounds for” for “affinity of compounds for”, “the human neurokinin NK3 receptor” for “the human NK3 receptor”, “concentration of 10 μM for” for “concentration of 1 μM for”
Receptor binding assays were performed using crude membranes prepared from CHO cells expressing human NK3 receptor. Osanetant (SR142801), a non-peptide NK3 antagonist, was used as a ligand, and SB222200 was used as a positive control reference compound. The assay was performed with cell membrane homogenates (24 μg protein) incubated for 120 min at 22° C. with 0.4 nM [^3H]SR142801 in the absence or presence of the test compound in a buffer containing 20 mM Hepes/NaOH (pH 7.4), 120 mM NaCl, 1 mM MnCl2, 0.01% bacitracin, 0.002% aprotinin and 0.1% BSA. Following incubation, the samples were filtered rapidly under vacuum through glass fiber filters (GF/B, Packard) that had been presoaked with 0.3% PEI. The filters were rinsed several times with ice-cold 50 mM Tris/HCl using a 96-sample cell harvester (Unifilter, Packard), dried, and counted for radioactivity in a scintillation counter (Topcount, Packard) using a scintillation cocktail (Microscint 0, Packard). Each test compound was evaluated at a single concentration of 10 μM. The standard reference compound, SB222200, was tested in each experiment. Nonspecific binding was determined in the presence of 10 μM SB222200. The specific ligand binding to the receptor is defined as the difference between the total binding and the nonspecific binding. The results are expressed as a percent of control specific binding ((measured specific binding/control specific binding)×100) obtained in the presence of the test compounds.

T1 sequence (P11766 whole entry): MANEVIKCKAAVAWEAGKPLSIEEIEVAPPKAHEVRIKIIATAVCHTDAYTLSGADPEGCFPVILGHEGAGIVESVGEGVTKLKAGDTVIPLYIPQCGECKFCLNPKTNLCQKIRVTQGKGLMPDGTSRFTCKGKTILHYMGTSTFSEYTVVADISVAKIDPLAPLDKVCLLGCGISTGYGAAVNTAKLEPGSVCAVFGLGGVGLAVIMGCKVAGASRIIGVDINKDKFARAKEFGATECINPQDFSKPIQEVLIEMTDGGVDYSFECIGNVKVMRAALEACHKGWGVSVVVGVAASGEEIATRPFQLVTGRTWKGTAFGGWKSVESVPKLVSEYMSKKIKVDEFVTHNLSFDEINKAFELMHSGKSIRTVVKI

SMILES | IC50 (GSNOR) [nM] | inhibition at 1 µM (human NK3 receptor [1]) [%] | IC50 (human NK3 receptor [2]) [nM] | inhibition at 10 µM (human NK3 receptor [3]) [%]
Cn1cc(C2=C(c3cccs3)C(c3cc(O)c(C(=O)O)c(F)c3)CC(=O)N2)cn1 (stereo not shown) [Example 17, 2-fluoro-6-hydroxy-4-(6-(1-methyl-1H-pyrazol-4-yl)-2-oxo-5-(thiophen-2-yl)-1,2,3,4-tetrahydropyridin-4-yl)benzoic acid] | < 100 | – | – | –
O=C1CC(c2cc(OCCO)c(O)c([N+](=O)[O-])c2)C(c2ccccc2)=C(c2ccccc2)N1 (stereo not shown) [Example 14, 4-(4-hydroxy-3-(2-hydroxyethoxy)-5-nitrophenyl)-5,6-diphenyl-3,4-dihydropyridin-2(1H)-one] | < 100 | > 50 | – | –
CCOc1cc(C2CC(=O)NC(c3ccccc3)=C2c2ccccc2)cc([N+](=O)[O-])c1O (stereo not shown) [Example 1, 4-(3-ethoxy-4-hydroxy-5-nitrophenyl)-5,6-diphenyl-3,4-dihydropyridin-2(1H)-one] | < 100 | – | ~1100 | > 50
O=C1CC(c2ccc(C(=O)O)c(O)c2)C(c2ccsc2)=C(c2ccccc2)N1 (stereo not shown) [Example 7, 2-hydroxy-4-(2-oxo-6-phenyl-5-(thiophen-3-yl)-1,2,3,4-tetrahydropyridin-4-yl)benzoic acid] | < 100 | – | – | –
CCOc1cc(C2CC(=O)NC(c3cccnc3)=C2c2ccsc2)cc([N+](=O)[O-])c1O (stereo not shown) [Example 2, 4-(3-ethoxy-4-hydroxy-5-nitrophenyl)-6-(pyridin-3-yl)-5-(thiophen-3-yl)-3,4-dihydropyridin-2(1H)-one] | < 100 | – | – | > 50
CCOc1cc(C2CC(=O)NC(c3cnn(C)c3)=C2c2ccsc2)cc([N+](=O)[O-])c1O (stereo not shown) [Example 4, 4-(3-ethoxy-4-hydroxy-5-nitrophenyl)-6-(1-methyl-1H-pyrazol-4-yl)-5-(thiophen-3-yl)-3,4-dihydropyridin-2(1H)-one] | < 100 | – | – | > 50
CCOc1cc(C2CC(=O)N(C)C(c3ccccc3)=C2c2ccccc2)cc([N+](=O)[O-])c1O (stereo not shown) [Example 16, 4-(3-ethoxy-4-hydroxy-5-nitrophenyl)-1-methyl-5,6-diphenyl-3,4-dihydropyridin-2(1H)-one] | – | > 50 | – | –
Cn1cc(C2=C(c3ccsc3)C(c3ccc(C(=O)O)c(O)c3)CC(=O)N2)cn1 (stereo not shown) [Example 9, 2-hydroxy-4-(6-(1-methyl-1H-pyrazol-4-yl)-2-oxo-5-(thiophen-3-yl)-1,2,3,4-tetrahydropyridin-4-yl)benzoic acid] | < 100 | – | – | –
